Peptide text beside a SMILES is read from it.
Columns and labels:
[1] = molecular target: T1, HDAC6 (Homo sapiens, UniProt Q9UBN7); test: HDAC6 inhibition, full IC50 measurement (Reaction Biology; fluorogenic p53 peptide RHKK(Ac)AMC); format: biochemical
T1 construct: purchased Reaction Biology Corporation (assay run by the CRO)
T1 sequence (Q9UBN7 1-1215): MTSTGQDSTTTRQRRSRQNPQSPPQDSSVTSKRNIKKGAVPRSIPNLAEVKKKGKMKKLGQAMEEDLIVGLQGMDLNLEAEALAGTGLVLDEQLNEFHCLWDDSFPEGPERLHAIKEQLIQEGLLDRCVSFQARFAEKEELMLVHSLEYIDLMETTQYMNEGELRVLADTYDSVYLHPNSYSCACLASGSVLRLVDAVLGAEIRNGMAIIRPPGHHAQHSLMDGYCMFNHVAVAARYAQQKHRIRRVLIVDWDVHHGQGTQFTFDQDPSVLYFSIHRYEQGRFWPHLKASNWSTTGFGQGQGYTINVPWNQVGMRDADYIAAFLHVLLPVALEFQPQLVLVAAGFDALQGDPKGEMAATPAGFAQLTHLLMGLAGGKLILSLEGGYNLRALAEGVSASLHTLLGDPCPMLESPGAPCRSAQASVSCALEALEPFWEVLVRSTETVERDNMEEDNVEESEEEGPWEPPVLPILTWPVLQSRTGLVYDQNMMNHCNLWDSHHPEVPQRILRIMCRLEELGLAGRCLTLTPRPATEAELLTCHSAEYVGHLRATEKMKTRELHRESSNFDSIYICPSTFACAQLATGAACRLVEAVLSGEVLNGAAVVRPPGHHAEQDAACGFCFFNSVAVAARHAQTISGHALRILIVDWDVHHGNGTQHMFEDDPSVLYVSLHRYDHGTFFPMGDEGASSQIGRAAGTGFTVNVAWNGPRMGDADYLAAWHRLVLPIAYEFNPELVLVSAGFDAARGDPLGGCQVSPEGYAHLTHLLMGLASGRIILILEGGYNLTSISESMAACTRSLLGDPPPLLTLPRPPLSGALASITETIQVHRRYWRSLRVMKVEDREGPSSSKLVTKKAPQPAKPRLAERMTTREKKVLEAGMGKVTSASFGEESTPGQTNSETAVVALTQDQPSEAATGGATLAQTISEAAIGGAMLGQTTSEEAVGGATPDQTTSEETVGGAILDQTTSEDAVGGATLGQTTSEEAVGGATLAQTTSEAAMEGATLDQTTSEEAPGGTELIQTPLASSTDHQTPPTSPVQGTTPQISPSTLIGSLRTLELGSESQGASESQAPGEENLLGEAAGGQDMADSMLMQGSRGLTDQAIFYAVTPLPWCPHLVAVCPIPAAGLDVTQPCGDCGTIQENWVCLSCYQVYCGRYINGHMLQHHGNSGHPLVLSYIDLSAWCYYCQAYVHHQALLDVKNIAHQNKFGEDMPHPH
In short: (§1)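 Deacetylation of 50 μM RHKK(Ac)AMC is measured after 1 h at 30 °C in pH 8.0 Tris buffer (1% DMSO, 1 mg/ml BSA). Developer ends the reaction; the post-plateau 360/460 nm signal is fitted to IC50, averaging replicate measurements.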

[2] = molecular target: T2, HDAC3 (Homo sapiens, UniProt O15379); test: HDAC3 inhibition, full IC50 measurement (Reaction Biology; fluorogenic p53 peptide RHKK(Ac)AMC); format: biochemical
T2 construct: purchased Reaction Biology Corporation (assay run by the CRO)
In short: as §1

T2 sequence (O15379 whole entry): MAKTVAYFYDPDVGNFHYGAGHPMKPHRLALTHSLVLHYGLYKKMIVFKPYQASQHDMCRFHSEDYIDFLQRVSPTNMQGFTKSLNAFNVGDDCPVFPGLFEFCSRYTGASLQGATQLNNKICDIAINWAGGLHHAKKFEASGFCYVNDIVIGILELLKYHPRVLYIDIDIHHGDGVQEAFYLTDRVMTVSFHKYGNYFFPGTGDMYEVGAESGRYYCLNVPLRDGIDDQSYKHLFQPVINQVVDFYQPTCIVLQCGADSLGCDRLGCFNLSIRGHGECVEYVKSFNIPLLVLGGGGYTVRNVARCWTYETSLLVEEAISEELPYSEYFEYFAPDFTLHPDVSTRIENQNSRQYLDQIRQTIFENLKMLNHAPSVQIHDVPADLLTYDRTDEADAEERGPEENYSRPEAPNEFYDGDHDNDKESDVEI
T2 sequence (Q9Y618 395-489 partner limits assumed): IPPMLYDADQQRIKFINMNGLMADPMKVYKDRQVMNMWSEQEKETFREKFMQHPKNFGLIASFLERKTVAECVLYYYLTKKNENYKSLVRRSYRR

C[C@H](O)[C@H]1NC(=O)[C@H](Cc2c[nH]c3ccccc23)NC(=O)[C@H](CCCCCS)NC(=O)[C@H](CCCCN)NC(=O)[C@@H](CC(=O)O)NC(=O)[C@@H](CCCCN)NC(=O)[C@@H](CO)NC(=O)[C@H](CC(N)=O)NC(=O)[C@H](CC(=O)O)NC1=O [des2.1.0, SHA-Trp-dThr-Asp-Asn-dSer-dLys-dAsp-Lys] (HELM PEPTIDE1{D.N.[dS].[dK].[dD].K.[O=C([C@H](CCCCCS)N[*:1])[*:2]].W.[dT]}$PEPTIDE1,PEPTIDE1,1:R1-9:R2$$$V2.0)
HDAC6 activity raw data (signal) ([1]; Conc. 1.00E-05 M, t1): 11243
HDAC6 activity raw data (signal) ([1]; Conc. 1.00E-05 M, t2): 1739
HDAC6 activity raw data (signal) ([1]; Conc. 1.11E-06 M, t1): 28172
HDAC6 activity raw data (signal) ([1]; Conc. 1.11E-06 M, t2): 21097
HDAC6 activity raw data (signal) ([1]; Conc. 1.23E-07 M, t1): 158713
HDAC6 activity raw data (signal) ([1]; Conc. 1.23E-07 M, t2): 131097
HDAC6 activity raw data (signal) ([1]; Conc. 1.37E-08 M, t1): 435775
HDAC6 activity raw data (signal) ([1]; Conc. 1.37E-08 M, t2): 375237
HDAC6 activity raw data (signal) ([1]; Conc. 1.52E-09 M, t1): 580209
HDAC6 activity raw data (signal) ([1]; Conc. 1.52E-09 M, t2): 526073
HDAC6 activity raw data (signal) ([1]; Conc. 3.33E-06 M, t1): 12962
HDAC6 activity raw data (signal) ([1]; Conc. 3.33E-06 M, t2): 9723
HDAC6 activity raw data (signal) ([1]; Conc. 3.70E-07 M, t1): 70613
HDAC6 activity raw data (signal) ([1]; Conc. 3.70E-07 M, t2): 63583
HDAC6 activity raw data (signal) ([1]; Conc. 4.12E-08 M, t1): 283586
HDAC6 activity raw data (signal) ([1]; Conc. 4.12E-08 M, t2): 230477
HDAC6 activity raw data (signal) ([1]; Conc. 4.57E-09 M, t1): 537641
HDAC6 activity raw data (signal) ([1]; Conc. 4.57E-09 M, t2): 486475
HDAC6 activity raw data (signal) ([1]; Conc. 5.08E-10 M, t1): 609077
HDAC6 activity raw data (signal) ([1]; Conc. 5.08E-10 M, t2): 536924
HDAC3 activity raw data (signal) ([2]; Conc. 1.00E-05 M, t1): 14719
HDAC3 activity raw data (signal) ([2]; Conc. 1.00E-05 M, t2): 13801
HDAC3 activity raw data (signal) ([2]; Conc. 1.11E-06 M, t1): 92063
HDAC3 activity raw data (signal) ([2]; Conc. 1.11E-06 M, t2): 96957
HDAC3 activity raw data (signal) ([2]; Conc. 1.23E-07 M, t1): 462933
HDAC3 activity raw data (signal) ([2]; Conc. 1.23E-07 M, t2): 478168
HDAC3 activity raw data (signal) ([2]; Conc. 1.37E-08 M, t1): 1054714
HDAC3 activity raw data (signal) ([2]; Conc. 1.37E-08 M, t2): 1114131
HDAC3 activity raw data (signal) ([2]; Conc. 1.52E-09 M, t1): 1368847
HDAC3 activity raw data (signal) ([2]; Conc. 1.52E-09 M, t2): 1246343
HDAC3 activity raw data (signal) ([2]; Conc. 3.33E-06 M, t1): 35860
HDAC3 activity raw data (signal) ([2]; Conc. 3.33E-06 M, t2): 35981
HDAC3 activity raw data (signal) ([2]; Conc. 3.70E-07 M, t1): 254333
HDAC3 activity raw data (signal) ([2]; Conc. 3.70E-07 M, t2): 260454
HDAC3 activity raw data (signal) ([2]; Conc. 4.12E-08 M, t1): 754531
HDAC3 activity raw data (signal) ([2]; Conc. 4.12E-08 M, t2): 801621
HDAC3 activity raw data (signal) ([2]; Conc. 4.57E-09 M, t1): 1235523
HDAC3 activity raw data (signal) ([2]; Conc. 4.57E-09 M, t2): 1319114
HDAC3 activity raw data (signal) ([2]; Conc. 5.08E-10 M, t1): 1390666
HDAC3 activity raw data (signal) ([2]; Conc. 5.08E-10 M, t2): 1409656

Reference: article PMC8185074, “Anchor extension: a structure-guided approach to design cyclic peptides targeting enzyme active sites” (Nature Communications, 2021)
